Laboratory results taken from patent publication US6265423A, “Aromatic polycyclic retinoid-type derivatives, method for preparing same, and use thereof for making pharmaceutical and cosmetic compositions” (priority 1996, dated 2001).
“Also recorded” adds a separate entry of the source.

Tests used:
[1] = test system: response element RARE of RARβ gene, endogenic retinoic receptors, HRLN lineage; assay: HRLN transactivation (RARE-luciferase, stably transfected HeLa); format: cell-based; settings: Homo sapiens, HeLa; for EC50: concentrations from 1 nM to 1 μM; for Emax: read-out: HRLN transactivation, E max
Experimental: (§1) MCF-7 cells and HeLa are cultivated in DMFM with phenol red to which 5% foetal calf serum is added. The T47-D cells are cultivated in RPMI to which 10% foetal calf serum is added. The experimental tests are carried out in DMEM without phenol red to which foetal calf serum treated with dextran carbon is added at 3%. […] The experiments using the different retinoids are carried out sheltered from the light so as to avoid any isomerisation.
(§2) Certain properties of the retinoids have been determined using more developed cellular models. These models consist of cellular lineages transfected in a stable fashion by recombinant plasmids which place the expression of the gene of the luciferase under the control of different nuclear response elements. […] The tests carried out in duplicate are described below for each of these models.
The cellular lineages HRLN and HRL+N allow one to study the activation of an RARE by endogenic receptors using ligands at physiological concentrations. These lineages derive from HeLa cells transfected in a stable fashion by a reporter gene which places the expression of the gene of the luciferase under the control of a nuclear response element RARE (RARE3 -tk-Luc). The HeLa cells express all the known receptors of the retinoic acid (RARα,β,γ and RXRα,β,γ) with a predominance of RARα and RXRα. The response element RARE used for the HRLN cells corresponds to the sequence of the natural gene of the RARβ receptor (GGTTCAnnnnnAGTTCA). The HRL+N cells comprise the sequence GAGTGAnnnnnCGGTGA.
This lineage comprises the response element RARE of the natural gene of the RARβ receptor which controls the expression of the gene of the luciferase.

[2] = test system: ERE-βGlob-Luc, MELN lineage (MCF-7); assay: Anti-oestrogenic effect, MELN lineage activated by estradiol; format: cell-based, human; settings: for inhibition / inhibition at 0.1 µM / inhibition at 0.01 µM: Homo sapiens, MCF7, cells activated by 10^-9 M estradiol; for inhibition: 10^-6 M; for inhibition at 0.1 µM: 10^-7 M; for inhibition at 0.1 µM / inhibition at 0.01 µM: read-out: anti-oestrogenic effect, inhibition; for inhibition at 0.01 µM: 10^-8 M
From the text: as §2
MCF-7 cells express RARα,γ and RXRα. The transfection of MCF-7 cells by an oestrogen-dependent gene (ERE-βGlob-Luc) has permitted the establishment of the MELN cellular lineage, used to determine the anti-oestrogenic activity of the retinoids. These cells contain the gene of the luciferase under the transcriptional control of the promoter of the βGlobine and of the response element ERE isolated from the gene of chicken vitelogenine A2. The experiments are carried out with MELN cells activated by 10^-9 M estradiol. The level of base activity of the MELN cells is obtained with the anti-oestrogen 1 μM 4-OH-tamoxifen (hydroxytamoxifen).
The effect of the products tested on the cells activated by 10^-9 M estradiol is expressed as a percentage, the level of base activity being deducted.

[3] = test system: AP-1, MTLN lineage (MCF-7); assay: Anti-AP-1 effect, MTLN lineage activated by TPA; format: cell-based, human
Experimental: as §2
The anti-factor AP-1 transrepressor effect of retinoids is determined using the MTLN lineage, coming from MCF-7 cells transfected in a stable fashion by a vector p(TRE)3 -tk-Luc which places the expression of the gene of luciferase under the control of […]. TPA activates the AP-1 complex formed from proteins of the family of nuclear proto-oncogenes (c-Jun and c-Fos). […] The experiments are made with the MTLN cells activated by 10^-7 M TPA.
The effect of the compounds on the MTLN cells activated by 10^-7 M TPA is expressed as a percentage. […] The inhibitive properties of the products are calculated after deduction of the base activity of the cells. The percentages reported correspond to a range of inhibitions determined from several experiments.

[4] = test system: human mammary tumoral lineage T-47D; assay: Clonogenic test (soft agar), growth of cellular colonies; format: cell-based; settings: T-47D; for activity at 0.01 µM / activity at 0.001 µM / activity at 0.0001 µM: 504 h, 21 days, control = 100%, read-out: mean number of cellular colonies in relation to control; for activity at 0.001 µM: 10^-9 M; for activity at 0.0001 µM: 10^-10 M; for effect on growth of cellular colonies (in words): soft agar
From the text: The human tumour stem cells are the clonogenic cells which are the origin of the neoplasic cells which constitute a given tumour. These tumour stem cells are responsible for the recidivism process observable after surgical resection of the primary tumours and are also responsible for the formation of metastases. […] At the level of a tumour or of a tumoral cellular lineage, these clonogenic stem cells distinguish themselves from other clonogenic cells of the tumour or of the neoplasic cellular lineage being considered, by the fact that they preserve their ability to proliferate in the absence of any solid support.
This technique is suitable for the culturing in vitro of most of the tumours and tumoral cellular lineages of various histological types. In the context of this test, the neoplastic cells are cultured on a semi-solid culture medium "soft agar" made up of a mixture of agar and agarose. On this selective support, only tumoral stem cells survive and proliferate. […] The morphological characteristics and the growth of the cellular colonies are also a function of the histological type of the tumours being considered.
These culture conditions are also called "anchorage-independent" conditions.
The base medium "MEM 25 MM HEPES" (Minimum Essential Medium, Life Technologies, Belgium) contains Eagle salts but no L-glutamine. This medium is well suited to the growth of a range of varied diploid cells or primary mammal cells. To this medium is then added:
The tumoral cells are maintained in culture in 25 cm^2 falcon dishes (Life Technologies, Belgium). They are then trypsinised and individualised. Their rate of viability is determined by coloration with trypan blue (Sigma, Belgium). It must be greater than 90%. In the case where this condition is kept to, a cellular suspension at the desired concentration is prepared in a solution of agar at 0. 3%. The cells are then seeded between two layers of agar (Sigma, Belgium) and in 35 mm Petri dishes (Life Technologies, Belgium). The base layer is made up of a 0.5% solution of agar and the top layer is made up of a 0.3% solution of agar. The cupules are then positioned and held in an incubator at 37° C. and 5% of CO2. […] After treatment, the cupules are kept in the incubator for 21 days. It is advisable to examine, during the course of the experiment, the appearance and the increase of the cellular colonies. If after 10 days, no colony appears or is developing, the experiment must be repeated. In the contrary case, on the 21st day, 100 μl of an MTT solution (3-(4,5-dimethylthiazol-2-yl)-2,5 diphenyl tetrazolium bromide; Sigma, Belgium) dissolved in the RPMI culture medium (Roswell park Memorial Institute, Life Technologies, Belgium), at the concentration of 1 mg/ml are deposited on the top layer of the group of cupules. The cells are kept in contact with this solution for a minimum of 3 hours at 37° C.
Using an inverted microscope at low magnification, the number of clones whose surface area is greater thar. 100 μm^2 is determined for the group of cupules representing all the different experimental conditions. Then, for each of these experimental conditions, the mean number of cellular colonies±the standard error on the mean (ESM) is calculated.
The mean number of cellular colonies determined for each experimental condition is expressed as a percentage in relation to the control condition made equal to 100%.

[5] = test system: RARα-ERcassette; assay: Transactivation, chimerical receptor RARα-ERcassette (HeLa); format: cell-based; settings: 10^-6 M; TTNPB 10^-8 M = 100
From the text: (§3) The HeLa cells are co-transfected by a plasmid which codes for a retinoic receptor in which the C domain of bonding to the DNA is substituted by that of the receptor to RE oestrogens, and a plasmid which places the expression of the luciferase under the control of an ERE (Element of Response to Oestrogens). The expressed chimerical receptors are designated as RARα-ERcassette, RARβ-ERcassette, RARγ-ERcassette and RXRα-ERcassette. The A, B, D, E and F regions of the natural receptor are preserved as well as the transcriptional co-operation between the activation domains AF-1 and AF-2. These transitory transfection experiments follow the method of co-precipitation to calcium phosphate. The HeLa cells are co-transfected by […] of plasmid coding for the chimerical receptor, […] of reporter plasmid and […] of expression vector CMV-β-galactosidase used as an internal control of transfection. 24 hours after the transfection, the cells are incubated for 16 hours with the different effectors.
(§4) In this type of chimerical receptor, the C domain of bonding to the DNA of RAR is substituted by that of the receptor to the RE oestrogens. The protein obtained is close to the natural RAR receptor and preserves the transcriptional properties of the AF-1 and AF-2 domains. It modulates the transcription by means of an ERE. This RAR-ERcassette model allows one to observe a transcriptional response to a more physiological ligand.

[6] = test system: RARβ-ERcassette; assay: Transactivation, chimerical receptor RARβ-ERcassette (HeLa); format: cell-based; settings: 10^-6 M; TTNPB 10^-8 M = 100
From the text: as §3, §4

[7] = test system: RARγ-ERcassette; assay: Transactivation, chimerical receptor RARγ-ERcassette (HeLa); format: cell-based; settings: 10^-6 M; TTNPB 10^-8 M = 100
From the text: as §3, §4

[8] = test system: T-47D cells; assay: Effect on oestrogen-induced proliferation of T-47D cells; format: cell-based, human; settings: Homo sapiens, T47D, 168 h; 1 μM (10^-6 M), 7 days, estradiol 10^-9 M; read-out: percentage inhibition of growth, T-47D
Experimental: as §1
So as to test the anti-proliferation effect of the retinoids, growth experiments under oestrogenic conditions were carried out on cells MCF-7 and T-47D. These are the human oestrogen-dependent mammary cancer cells which express the receptor to RE oestrogens. The effect of the molecules is evaluated after 7 days of culture in oestrogenic conditions (estradiol 10^-9 M) by dosing the cellular DNA. The cells are distributed in 24 well plates at a density of 2×10^4 cells per well. The tests with the different retinoids are carried out in triplicate and the culture medium is changed after 4 days of growth.

SMILES	EC50 [1]	Emax [1]	inhibition [2]	inhibition at 0.1 µM [2]	inhibition at 0.01 µM [2]	anti-AP-1 effect (in words) ([3]; TPA-activated MTLN cells)	anti-oestrogenic effect (in words) ([2]; estradiol-activated MELN cells)	activity at 0.01 µM ([4]; Homo sapiens, T47D, 10^-8 M)	activity at 0.001 µM ([4]; Homo sapiens, T47D)	activity at 0.0001 µM ([4]; Homo sapiens, T47D)	effect on growth of cellular colonies (in words) [4]	RAR-ERcassette RARα transactivation [5]	RAR-ERcassette RARβ transactivation [6]	RAR-ERcassette RARγ transactivation [7]	inhibition at 0.1 µM ([3]; Homo sapiens, MCF7, 10^-7 M, cells activated by 10^-7 M TPA, range of several experiments, read-out: anti-AP-1 effect, inhibition)	inhibition at 0.01 µM ([3]; Homo sapiens, MCF7, 10^-8 M, cells activated by 10^-7 M TPA, range of several experiments, read-out: anti-AP-1 effect, inhibition)	anti-oestrogenic effect, inhibition (of the order of) ([2]; MELN, estradiol 10^-9 M)	inhibition at 0.01 µM ([4]; Homo sapiens, T47D, 10^-8 M, read-out: inhibition of colony growth)	inhibition at 1 µM [8]
CCCCCCCOc1cc2c(cc1/C(C)=C/c1ccc(C(=O)O)cc1)C(C)(C)CCS2(=O)=O [Ro 41-5253, reference compound]	–	–	–	–	–	does not allow the inhibition induced by TTNPB to be totally lifted	raises the inhibitor effect of Am580 and also of TTNPB	–	–	–	–	–	–	–	–	–	–	–	–
CC1(C)CCC(C)(C)c2cc(C(=O)Nc3ccc(C(=O)O)cc3)ccc21 [Am580, 4-[(5,6,7,8-tetrahydro-5,5,8,8-tetramethyl-2-naphthalenyl)carboxamido]benzoic acid, reference compound]	–	–	–	–	36 to 51%	–	–	–	–	–	–	–	–	–	41 to 48%	40 to 46%	~40%	–	–

Second part, led by results:

EC50 [1]	SMILES	Emax [1]	inhibition [2]	inhibition at 0.1 µM [2]	inhibition at 0.01 µM [2]	anti-AP-1 effect (in words) ([3]; TPA-activated MTLN cells)	anti-oestrogenic effect (in words) ([2]; estradiol-activated MELN cells)	activity at 0.01 µM ([4]; Homo sapiens, T47D, 10^-8 M)	activity at 0.001 µM ([4]; Homo sapiens, T47D)	activity at 0.0001 µM ([4]; Homo sapiens, T47D)	effect on growth of cellular colonies (in words) [4]	RAR-ERcassette RARα transactivation [5]	RAR-ERcassette RARβ transactivation [6]	RAR-ERcassette RARγ transactivation [7]	inhibition at 0.1 µM ([3]; Homo sapiens, MCF7, 10^-7 M, cells activated by 10^-7 M TPA, range of several experiments, read-out: anti-AP-1 effect, inhibition)	inhibition at 0.01 µM ([3]; Homo sapiens, MCF7, 10^-8 M, cells activated by 10^-7 M TPA, range of several experiments, read-out: anti-AP-1 effect, inhibition)	anti-oestrogenic effect, inhibition (of the order of) ([2]; MELN, estradiol 10^-9 M)	inhibition at 0.01 µM ([4]; Homo sapiens, T47D, 10^-8 M, read-out: inhibition of colony growth)	inhibition at 1 µM [8]
38.3 ± 9.5 nM	C/C(=C\c1ccc2c(c1)C(C)(C)CCC2(C)C)c1cc(C(=O)O)cs1 [CB80660]	106%	18 to 37%	20 to 42%	26%	–	–	–	–	–	–	–	–	–	–	–	–	–	–
55.8 ± 70.1 nM	C/C(=C\c1ccc2c(c1)C(C)(C)CCC2(C)C)c1cc(C(=O)O)no1 [CB57201]	70%	23 to 41%	1 to 9%	0%	–	–	64.8 ± 1.2%	58.9 ± 11%	75.2 ± 12.2%	inhibit the growth of the cellular colonies; also recorded: significantly inhibit the growth of the colonies	73%	132%	84%	–	–	–	–	–
21.4 ± 5.6 nM	C/C(=C\c1ccc2c(c1)C(C)(C)CCC2(C)C)c1ccc(C(=O)O)nc1 [CB12273, (E) 5-[1-(5,6,7,8-tetrahydro-5,5,8,8-tetramethyl-2-naphthalenyl)-2-propenyl]pyridinyl-2-carboxylic acid]	106%	21 to 41%	7 to 16%	0%	–	–	71.2 ± 2.9%	93.9 ± 3.3%	92.9 ± 21.7%	–	90%	123%	106%	–	–	–	28.8%	–
14.9 ± 12.3 nM	C/C(=C\c1ccc2c(c1)C(C)(C)CCC2(C)C)c1ccc(C(=O)O)s1 [CB38973]	89%	30%	–	–	–	–	38.6 ± 3.6%	60.1 ± 2%	68.4 ± 8.3%	inhibit the growth of the cellular colonies; also recorded: significantly inhibit the growth of the colonies	–	–	–	–	–	–	–	55%
